Laboratory results taken from publication PMC8545931, “Production and immobilization of β-glucanase from Aspergillus niger with its applications in bioethanol production and biocontrol of phytopathogenic fungi” (Scientific Reports, 2021).

Biological target: T1, β-glucanase
T1 construct: gene eglA; native secreted enzyme purified from culture supernatant (ammonium sulfate, DEAE-Cellulose, Sephadex G200); 56 kDa on SDS-PAGE; gene not identified; assayed as CMC hydrolysis
Assay: residual CMC hydrolysis, DNS reducing sugar
Type: biochemical, Aspergillus niger
Conditions: free enzyme, standard assay 0.5% CMC stock, citrate pH 5.0, 40 °C

SMILES: CC(O)C(C)O (stereo not shown) [2.3-butanediol]
- IC50 (arginyl reagent, printed as 2,3-butanediol, probably 2,3-butanedione meant): 4.65 mM

SMILES: CC(=O)n1ccnc1 [N-Acetyl imidazole]
- IC50 (covalent, tyrosyl reagent): 8.87 mM

SMILES: O=C1CCC(=O)N1Br [N-bromosuccinimide]
- IC50 (covalent, tryptophanyl reagent): 6.44 mM

SMILES: [Hg+][c]1ccccc1 [phenylmercuric acetate]
- IC50 (covalent, sulfhydryl reagent): 5.47 mM
